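Grown in 96-well plates, cells were treated for 48 hours with each compound at five concentrations. Insufficient inhibition: endpoint recorded as highest concentration tested. TGI: total growth inhibition.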
Columns and labels:
Assay in all cases: NCI tumour cell line growth inhibition, 48 h
LOX IMVI melanoma = tested on: LOX IMVI melanoma
T-47D breast = tested on: T-47D breast
CCRF-CEM leukemia = tested on: CCRF-CEM leukemia
UACC-257 melanoma = tested on: UACC-257 melanoma
ACHN renal = tested on: ACHN renal
DU-145 prostate = tested on: DU-145 prostate
KM12 colon = tested on: KM12 colon
HOP-62 NSCLC = tested on: HOP-62 NSCLC
SW-620 colon = tested on: SW-620 colon
MDA-MB-435 = tested on: MDA-MB-435
SF-539 CNS = tested on: SF-539 CNS
RPMI-8226 leukemia = tested on: RPMI-8226 leukemia
786-0 renal = tested on: 786-0 renal
UO-31 renal = tested on: UO-31 renal
SN12C renal = tested on: SN12C renal
NCI-H460 lung = tested on: NCI-H460 lung
SF-268 CNS = tested on: SF-268 CNS
NCI/ADR-RES ovarian = tested on: NCI/ADR-RES ovarian
CAKI-1 renal = tested on: CAKI-1 renal
HOP-92 NSCLC = tested on: HOP-92 NSCLC
COLO 205 colon = tested on: COLO 205 colon
SK-MEL-2 melanoma = tested on: SK-MEL-2 melanoma
TK-10 renal = tested on: TK-10 renal
NCI-H522 lung = tested on: NCI-H522 lung
HT29 colon = tested on: HT29 colon
SNB-75 CNS = tested on: SNB-75 CNS
SF-295 CNS = tested on: SF-295 CNS
NCI-H226 lung = tested on: NCI-H226 lung
OVCAR-5 ovarian = tested on: OVCAR-5 ovarian
OVCAR-4 ovarian = tested on: OVCAR-4 ovarian
NCI-H23 lung = tested on: NCI-H23 lung
HCC-2998 colon = tested on: HCC-2998 colon
A549 NSCLC = tested on: A549 NSCLC
SR leukemia = tested on: SR leukemia
MDA-N = tested on: MDA-N
SK-MEL-5 melanoma = tested on: SK-MEL-5 melanoma
HS 578T breast = tested on: HS 578T breast
OVCAR-3 ovarian = tested on: OVCAR-3 ovarian
OVCAR-8 ovarian = tested on: OVCAR-8 ovarian
HCT-15 colon = tested on: HCT-15 colon
SNB-19 CNS = tested on: SNB-19 CNS
MCF7 breast = tested on: MCF7 breast
MDA-MB-231 breast = tested on: MDA-MB-231 breast
PC-3 prostate = tested on: PC-3 prostate
MALME-3M melanoma = tested on: MALME-3M melanoma
SK-MEL-28 melanoma = tested on: SK-MEL-28 melanoma
K-562 leukemia = tested on: K-562 leukemia
HCT-116 colon = tested on: HCT-116 colon
U251 CNS = tested on: U251 CNS
M14 melanoma = tested on: M14 melanoma
HL-60(TB) leukemia = tested on: HL-60(TB) leukemia
EKVX NSCLC = tested on: EKVX NSCLC
IGROV1 ovarian = tested on: IGROV1 ovarian
MOLT-4 leukemia = tested on: MOLT-4 leukemia
UACC-62 melanoma = tested on: UACC-62 melanoma
SK-OV-3 ovarian = tested on: SK-OV-3 ovarian

CCn1cc(C(=O)O)c(=O)c2ccc(C)nc21 was tested, and the TGI (LOX IMVI melanoma) was greater than 100 µM, the TGI (T-47D breast) was greater than 100 µM and the TGI (CCRF-CEM leukemia) was greater than 100 µM. The TGI (UACC-257 melanoma) was greater than 100 µM, the TGI (ACHN renal) was greater than 100 µM and the TGI (DU-145 prostate) was greater than 100 µM. For the same compound, the TGI (KM12 colon) was greater than 100 µM, the TGI (HOP-62 NSCLC) was greater than 100 µM and the TGI (SW-620 colon) was greater than 100 µM. For the same compound, the TGI (MDA-MB-435) was greater than 100 µM, the TGI (SF-539 CNS) was greater than 100 µM and the TGI (RPMI-8226 leukemia) was greater than 100 µM. For the same compound, the TGI (786-0 renal) was greater than 100 µM, the TGI (UO-31 renal) was greater than 100 µM and the TGI (SN12C renal) was greater than 100 µM. The TGI (NCI-H460 lung) was greater than 100 µM, the TGI (SF-268 CNS) was greater than 100 µM and the TGI (NCI/ADR-RES ovarian) was greater than 100 µM. The TGI (CAKI-1 renal) was greater than 100 µM, the TGI (HOP-92 NSCLC) was greater than 100 µM and the TGI (COLO 205 colon) was greater than 100 µM. For the same compound, the TGI (SK-MEL-2 melanoma) was greater than 100 µM, the TGI (TK-10 renal) was greater than 100 µM and the TGI (NCI-H522 lung) was greater than 100 µM. It also gave a TGI (HT29 colon) greater than 100 µM, a TGI (SNB-75 CNS) greater than 100 µM and a TGI (SF-295 CNS) greater than 100 µM. It also gave a TGI (NCI-H226 lung) greater than 100 µM, a TGI (OVCAR-5 ovarian) greater than 100 µM and a TGI (OVCAR-4 ovarian) greater than 100 µM. It also gave a TGI (NCI-H23 lung) greater than 100 µM, a TGI (HCC-2998 colon) greater than 100 µM and a TGI (A549 NSCLC) greater than 100 µM. For the same compound, the TGI (SR leukemia) was greater than 100 µM, the TGI (MDA-N) was greater than 100 µM and the TGI (SK-MEL-5 melanoma) was greater than 100 µM. For the same compound, the TGI (HS 578T breast) was greater than 100 µM, the TGI (OVCAR-3 ovarian) was greater than 100 µM and the TGI (OVCAR-8 ovarian) was greater than 100 µM. The TGI (HCT-15 colon) was greater than 100 µM, the TGI (SNB-19 CNS) was greater than 100 µM and the TGI (MCF7 breast) was greater than 100 µM. It also gave a TGI (MDA-MB-231 breast) greater than 100 µM, a TGI (PC-3 prostate) greater than 100 µM and a TGI (MALME-3M melanoma) greater than 100 µM. It also gave a TGI (SK-MEL-28 melanoma) greater than 100 µM, a TGI (K-562 leukemia) greater than 100 µM and a TGI (HCT-116 colon) greater than 100 µM. The TGI (U251 CNS) was greater than 100 µM, the TGI (M14 melanoma) was greater than 100 µM and the TGI (HL-60(TB) leukemia) was greater than 100 µM. The TGI (EKVX NSCLC) was greater than 100 µM, the TGI (IGROV1 ovarian) was greater than 100 µM and the TGI (MOLT-4 leukemia) was greater than 100 µM.
With COc1cc2c3c(c1Oc1nnnn1-c1ccccc1)-c1c(ccc4c1OCO4)C[C@H]3N(C)CC2 the TGI (LOX IMVI melanoma) was 77.5 µM, the TGI (T-47D breast) was greater than 100 µM and the TGI (CCRF-CEM leukemia) was greater than 100 µM. It also gave a TGI (UACC-257 melanoma) of 40 µM, a TGI (ACHN renal) of 88.7 µM and a TGI (DU-145 prostate) greater than 100 µM. It also gave a TGI (KM12 colon) greater than 100 µM, a TGI (HOP-62 NSCLC) greater than 100 µM and a TGI (SW-620 colon) greater than 100 µM. For the same compound, the TGI (MDA-MB-435) was 51.3 µM, the TGI (SF-539 CNS) was greater than 100 µM and the TGI (UACC-62 melanoma) was 29 µM. For the same compound, the TGI (RPMI-8226 leukemia) was greater than 100 µM, the TGI (786-0 renal) was 39.7 µM and the TGI (UO-31 renal) was greater than 100 µM. It also gave a TGI (SN12C renal) greater than 100 µM, a TGI (NCI-H460 lung) greater than 100 µM and a TGI (SF-268 CNS) greater than 100 µM. For the same compound, the TGI (NCI/ADR-RES ovarian) was greater than 100 µM, the TGI (HOP-92 NSCLC) was 78.6 µM and the TGI (COLO 205 colon) was greater than 100 µM. For the same compound, the TGI (SK-MEL-2 melanoma) was greater than 100 µM, the TGI (TK-10 renal) was greater than 100 µM and the TGI (NCI-H522 lung) was 94.6 µM. It also gave a TGI (HT29 colon) of 41.9 µM, a TGI (SK-OV-3 ovarian) greater than 100 µM and a TGI (SNB-75 CNS) of 91.3 µM. For the same compound, the TGI (SF-295 CNS) was greater than 100 µM, the TGI (NCI-H226 lung) was greater than 100 µM and the TGI (OVCAR-5 ovarian) was greater than 100 µM. For the same compound, the TGI (NCI-H23 lung) was greater than 100 µM, the TGI (HCC-2998 colon) was 36.3 µM and the TGI (A549 NSCLC) was greater than 100 µM. It also gave a TGI (SR leukemia) greater than 100 µM, a TGI (MDA-N) of 55.1 µM and a TGI (SK-MEL-5 melanoma) greater than 100 µM. It also gave a TGI (HS 578T breast) greater than 100 µM, a TGI (OVCAR-3 ovarian) greater than 100 µM and a TGI (OVCAR-8 ovarian) greater than 100 µM. For the same compound, the TGI (HCT-15 colon) was 73.1 µM, the TGI (SNB-19 CNS) was greater than 100 µM and the TGI (MDA-MB-231 breast) was greater than 100 µM. For the same compound, the TGI (PC-3 prostate) was greater than 100 µM, the TGI (MALME-3M melanoma) was 34.8 µM and the TGI (SK-MEL-28 melanoma) was 37.1 µM. The TGI (K-562 leukemia) was greater than 100 µM, the TGI (HCT-116 colon) was greater than 100 µM and the TGI (U251 CNS) was greater than 100 µM. The TGI (M14 melanoma) was 37.5 µM, the TGI (HL-60(TB) leukemia) was greater than 100 µM and the TGI (EKVX NSCLC) was greater than 100 µM. The TGI (IGROV1 ovarian) was greater than 100 µM and the TGI (MOLT-4 leukemia) was greater than 100 µM.

— PubChem BioAssay (NCI)
